Laboratory results as given in patent US20210139966A1, “ENHANCEMENT OF NUCLEIC ACID POLYMERIZATION BY MINOR GROOVE BINDING MOIETIES” (priority 2018, published 2021).
Structures can show the parent of a compound that is named as a salt. Where two headings read alike, the source gives them in different places.

How the values were obtained:
[1] = tested on: DNA polymerase; assay: Primer extension reaction with XNTPs as substrates (additive screen and MGB titration), gel electrophoresis of Xpandomer products; assay type: biochemical; conditions: for enhancement of XNTP polymerization in titration: FIG. 5, MGB ranging from 75 to 600 μM, highest concentration most robust enhancement; for amount of MGB demonstrating reliable enhancement of XNTP polymerization: further titration experiments, FIG. 6
Excerpt: However, initial transcription of the sequence of the natural DNA template onto the measurable Xpandomer relies on the ability of DNA polymerase to utilize XNTPs as substrates (the generalized structure of an XNTP is discussed herein with reference to FIG. 1A and FIG. 2). […] In an effort to improve the efficiency and accuracy of XNTP polymerization into Xpandomers, a wide variety of additives was screened for the ability to enhance DNA polymerase primer extension reactions using XNTPs as substrates.
A typical primer extension reaction includes the following reagents: 2 pmol primer, 2.2 pmol 45 mer oligonucleotide template, 50 pmol of each XNTP (XATP, XCTP, XGTP, and XTTP), 50 mM Tris HCl, pH 6.79, 200 mM NaCl, 20% PEG, 5% NMS, 0.5 nmol polyphosphate 60.19, 0.3 mM MnCl2, and 0.6 μg of purified recombinant DNA polymerase protein. Reactions are run for 1 hr at 23° C. Reaction products (i.e. constrained Xpandomers) are treated to cleave the phosphoramidate bonds, thereby generating linearized Xpandomers. Reaction products are analyzed using gel electrophoresis on 4-12% acrylamide gels to resolve and visualize Xpandomer products of different lengths. For the additive screen, reaction additives were typically tested in the micro to millimolar range.
Using the primer extension reaction described in Example 1, titration experiments were performed to determine the optimal amount of MGB for enhancement of XNTP polymerization.

[2] = tested on: DNA polymerase; assay: Sequencing by Expansion (SBX) of primer extension products, nanopore reads aligned to a 45 mer template; assay type: biochemical; conditions: FIG. 7B, no additive control not accurate past base 20
Protocol: To investigate the accuracy of enhancement of XNTP polymerization, primer extension products were sequenced using the SBX protocol. Briefly, the constrained Xpandomer products of XNTP polymerization are cleaved to generate linearized Xpandomers. This is accomplished by first quenching the extension reaction with a solution containing 100 mM EDTA, 2 mM THPTA, and 2% Tween-20. Then the sample is subjected to amine modification with a solution of 1 M NaHCO3 and 1 M succinic anhydride in DMF. Cleavage of the phosphoramidate bonds is carried out with 37% HCl and linearized Xpandomers are purified with QIAquick columns (QIAGEN, Inc.).
For sequencing, protein nanopores are prepared by inserting α-hemolysin into a DPhPE/hexadecane bilayer member in buffer B1, containing 2 M NH4Cl and 100 mM HEPES, pH 7.4. The cis well is perfused with buffer B2, containing 0.4 M NH4Cl, 0.6 M GuCl, and 100 mM HEPES, pH 7.4. The Xpandomer sample is heated to 70° C. for 2 minutes, cooled completely, then a 2 μL sample is added to the cis well. A voltage pulse of 90 mV/390 mV/10 μs is then applied and data is acquired via Labview acquisition software.
Sequence data was analyzed by histogram display of the population of sequence reads from a single SBX reaction. […]

[3] = additive screen, primer extension with XNTPs, 1 hr at 23° C., additives typically tested in the micro to millimolar range

Compound	Extension Effect [1, 3]	further results
NC(COP(=O)(O)O)C(=O)O (racemic) [O-phospho-DL-serine]	Inhibitory	–
Nc1cc(C(=O)O)ccc1C(=O)O [2-Aminoterephthalic acid]	–	Extension Effect [1]: Inhibitory
Cl.Nc1ccc2cc3ccc(N)cc3nc2c1 [3,6-Diaminoacridine Hydrochloride, reference compound]	Beneficial	effect on primer extension with XNTPs (summary of additive screen) ([1]; additive screen): significantly and reproducibly enhanced
O=S(=O)([O-])CCC[n+]1ccccc1 [3-(1-pyridinio)-1-propanesulfonate]	No effect	–
Nc1cc(C(=O)O)cc(C(=O)O)c1 [5-Aminoisophthalic acid]	Inhibitory	–
CCCCCCCCCCCCCC(=O)NCCC[N+](C)(C)CCCS(=O)(=O)[O-] [ASB-14 (amidosulfobetaine)]	No effect	–
CC(C)=O [Acetone]	Beneficial	–
CC#N [Acetonitrile]	No effect	–
N=C(N)NCCC[C@H](N)C(=O)O [Arginine]	Inhibitory	–
NCc1ccccc1 [Benzylamine]	No effect	–
C[N+](C)(C)CC(=O)O [Betaine]	Inhibitory	–
CCCCCCCc1ccc(C(O)CC[N+](C)(C)CCCS(=O)(=O)[O-])cc1 (stereo not drawn) [C7BzO]	No effect	–
N=C(N)c1ccc(-c2cc3ccc(C(=N)N)cc3[nH]2)cc1 [DAPI, reference compound]	No effect	effect on XNTP polymerization reaction, gel of FIG. 4 (extension product length vs no-additive lane 1, around 14 XNTPs) ([1]; FIG. 4 representative gel): inhibitory effect
C[S+](C)[O-] [DMSO]	Length increases	–
CN(C)C=O [Dimethylformamide]	No effect	–
CC(=O)NCC(=O)O.CC(=O)NCC(=O)O.N=C(N)c1ccc(N=NNc2ccc(C(=N)N)cc2)cc1 [Diminazine Aceturate, reference compound]	No effect	–
CCCCCCCCCCCC[N+](C)(C)C.[Cl-] [Dodecyltrimethylammonium chloride]	Inhibitory	–
C[N+](C)(C)CC(=O)NN.[Cl-] [Girards Reagent T]	No effect	–
OCC(O)CO [Glycerol]	No effect	–
CN1CCN(c2ccc3[nH]c(-c4ccc5[nH]c(-c6ccc(O)cc6)nc5c4)nc3c2)CC1 [Hoescht Stain solution 33258, reference compound]	Beneficial	enhancement of XNTP polymerization in titration [1]: dose-dependent enhancement; effect on primer extension with XNTPs (summary of additive screen) ([1]; additive screen): significantly and reproducibly enhanced; amount of MGB demonstrating reliable enhancement of XNTP polymerization [1]: 0.6 mM; accuracy of sequence reads of SBX sequencing [2]: increased the accuracy of the sequence reads completely to the end of the 45 mer template
CCOc1ccc(-c2nc3ccc(-c4nc5ccc(N6CCN(C)CC6)cc5[nH]4)cc3[nH]2)cc1 [Hoescht Stain solution 33342, reference compound]	Beneficial	enhancement of XNTP polymerization in titration [1]: dose-dependent enhancement; effect on primer extension with XNTPs (summary of additive screen) ([1]; additive screen): significantly and reproducibly enhanced; amount of MGB demonstrating reliable enhancement of XNTP polymerization [1]: 0.8 mM
CN1CCN(c2ccc3nc(-c4ccc5nc(-c6ccc(N(C)C)cc6)[nH]c5c4)[nH]c3c2)CC1 [Hoescht Stain solution 34580, reference compound]	Beneficial	effect on primer extension with XNTPs (summary of additive screen) ([1]; additive screen): significantly and reproducibly enhanced
c1c[nH]cn1 [Imidazole]	No effect	–

Compound	Extension Effect [1, 3]	further results
[Mg+2] [Magnesium]	Inhibitory	–
CCCCCCCCCCCCN(C)CC(=O)O [N-Lauryl Sarcosine]	Inhibitory	–
CN1C(=O)CCC1=O [N-methyl succinimide]	Beneficial	–
[Cl-].[Na+] [NaCl]	–	Extension Effect [1]: Beneficial
Cn1cc(NC(=O)c2cc(NC(=O)CN=C(N)N)cn2C)cc1C(=O)NCCC(=N)N [Netropsin dihydrochloride, reference compound]	Beneficial	enhancement of XNTP polymerization in titration [1]: dose-dependent enhancement; effect on primer extension with XNTPs (summary of additive screen) ([1]; additive screen): significantly and reproducibly enhanced
O=S(=O)([O-])[O-].[Ni+2] [NiSO4]	Inhibitory	–
C[N+](=O)[O-] [Nitromethane]	Inhibitory	–
N[C@@H](Cc1ccc(OP(=O)(O)O)cc1)C(=O)O [O-Phospho-L-tyrosine]	Inhibitory	–
N=C(N)c1ccc(OCCCCCOc2ccc(C(=N)N)cc2)cc1 [Pentamidine isethionate salt, reference compound]	No effect	–
O=C(/C=C/C=C/c1ccc2c(c1)OCO2)N1CCCCC1 [Piperdine]	Inhibitory	–
[Cl-].[K+] [Potassium Chloride]	No effect	–
CC1COC(=O)O1 (stereo not drawn) [Propylene carbonate]	Inhibitory	–
CCCCCC(=O)[O-].[Na+] [Sodium Hexanoate]	No effect	–
CCCCCCCCCCCCOS(=O)(=O)[O-].[Na+] [Sodium docecyl sulfate]	No effect	–
CCCCCCCCCCCCC/C=C/[C@@H](O)[C@@H](N)CO [Sphingosine]	No effect	–
C[N+](C)(C)C.[Cl-] [TMACl]	No effect	–
C[N+](C)(C)[O-] [TMAO]	Variable effects	–
C1CCOC1 [Tetrahydrofuran]	No effect	–
CC(=O)O.CCN(CC)CC [Triethylamine acetate]	Inhibitory	–
NC(N)=O [Urea]	Beneficial	–
CDPI3 [reference compound]	Variable effects	–
Triton	No effect	–
